For the assay, the target named is T1, Bma-GAR-3 (Brugia malayi, UniProt A0A4E9FL79).
T1 construct: full-length synthesized ORF; transgenic C. elegans gar-3(gk305) knockout, expressed in ASH neuron (sra-6p), body wall muscle (myo-3p) or pharynx (myo-2p)
The assay can be described thus: ring aversion assay, transgenic C. elegans expressing receptor in ASH neuron. Particulars: agonist; 100 mM in plate ring; whole transgenic worms, gar-3(gk305) knockout background; N2 and knockout as controls; also pharyngeal pumping and dye-uptake assays.

T1 sequence (A0A4E9FL79 entry or part of it): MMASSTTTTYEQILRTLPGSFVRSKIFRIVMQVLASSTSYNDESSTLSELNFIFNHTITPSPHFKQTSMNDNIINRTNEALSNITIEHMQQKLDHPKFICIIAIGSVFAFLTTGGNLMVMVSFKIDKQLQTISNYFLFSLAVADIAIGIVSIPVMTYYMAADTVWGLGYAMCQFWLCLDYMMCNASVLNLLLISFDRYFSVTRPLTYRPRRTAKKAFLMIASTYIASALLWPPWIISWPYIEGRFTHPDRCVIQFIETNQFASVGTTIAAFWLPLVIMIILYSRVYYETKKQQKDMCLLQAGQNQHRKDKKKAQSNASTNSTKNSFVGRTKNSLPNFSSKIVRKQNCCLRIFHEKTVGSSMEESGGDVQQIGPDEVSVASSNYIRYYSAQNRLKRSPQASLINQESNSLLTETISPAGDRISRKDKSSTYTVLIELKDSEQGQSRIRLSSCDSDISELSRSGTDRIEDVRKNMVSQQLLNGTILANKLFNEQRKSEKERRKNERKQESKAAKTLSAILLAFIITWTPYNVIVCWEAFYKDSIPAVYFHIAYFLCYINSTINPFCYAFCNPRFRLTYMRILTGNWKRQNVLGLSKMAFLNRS

Consider `C[N+](C)(C)CC#CCN1CCCC1=O` [OXO, oxotremorine M], for which the “ring aversion assay, transgenic C. elegans expressing receptor in ASH neuron” value is “this receptor is activated by acetylcholine and oxotremorine M”.

The record behind these values is publication PMC9872666, “Pharmacological Profiling of a Brugia malayi Muscarinic Acetylcholine Receptor as a Putative Antiparasitic Target” (Antimicrobial Agents and Chemotherapy, 2023).
